Assay results from publication PMC11224556, “Next-generation of BBQ analogues that selectively target breast cancer” (Frontiers in Chemistry, 2024).
Like-named read-outs stand apart in the source and are kept apart here.

How the values were obtained:
Format in all cases: cell-based, human
[1] = system: broad panel of cancer cell lines and non-cancer breast cell line MCF10A; test: MTT growth inhibition: GI50 ranges and selectivity across the cell line panel
Excerpt: (§1) Each BBQ analogue, 2-14 was screened for their growth inhibition ability (GI50) in a broad panel of cancer cell lines and a non-cancer breast cell line (MCF10A), using the MTT growth inhibition assay (Table 1) ([Baker et al., 2021b]). The cancer panel comprised HT29 (colorectal), U87 (brain), SJ-G2 (brain), A2780 (ovary), Du145 (prostate), BE2-C (neuronal), MIA (pancreas), H460 (lung, ER+), A431 (vulva, ER+ (estrogen receptor positive)), and a wide selection of breast cancer cell lines with varying receptor status including MCF-7 (ER + luminal A), T47D (ER/PR+ (progesterone receptor positive)luminal A), ZR-75-1 (ER/PR + luminal A), BT-474 (ER/PR/HER2+ luminal B), SKBR-3 (HER2+), MDA-MB-468, BT20, and MDA-MB-231 (basal, triple negative (TN) for ER, PR, and HER2).
(§2) Stock solutions were prepared as follows and stored as 20 mM DMSO solutions at −20 °C. All cell lines were cultured in a humidified atmosphere 5% CO2 at 37 °C. The cancer cell lines were maintained in Dulbecco’s modified Eagle’s medium (DMEM) (Trace Biosciences, Australia) supplemented with 10% foetal bovine serum (FBS), 10 mM sodium bicarbonate, penicillin (100 IU/mL), streptomycin (100 μg/mL), and glutamine (4 mM). The non-cancer MCF10A cell line was cultured in DMEM:F12 (1:1) cell culture media, 5% heat inactivated horse serum, supplemented with penicillin (50 IU/mL), streptomycin (50 μg/mL), 20 mM Hepes, L-glutamine (2 mM), epidermal growth factor (20 ng/mL), hydrocortisone (500 ng/mL), cholera toxin (100 ng/mL), and insulin (10 μg/mL). The AhR reporter cell line HT29-Lucia™ (Invivogen, United States) was maintained in DMEM supplemented with 10% heat inactivated FBS, L-glutamine (2 mM), penicillin (100 IU/mL), streptomycin (100 μg/mL), 100 μg/mL Normocin™, and 100 μg/mL of the selective antibiotic Zeocin™. All cell lines were purchased from the American Type Culture Collection (ATCC), except for A2780 and A431 which were from the European Collection of Authenticated Cell Cultures (ECACC), and SJ-G2 cell line which was from Dr Mary Danks, St Jude Children’s Research hospital, Memphis, TN.
(§3) Cells in logarithmic growth were transferred to 96-well plates. Cytotoxicity was determined by plating cells in duplicate in 100 μL medium at a density of 2,500–4,000 cells/well in 96 well plates. On day 0, (24 h after plating) when the cells were in logarithmic growth 100 μL medium with or without the test agent was added to each well. After 72 h drug exposure growth inhibitory effects were evaluated using the MTT (3-[4,5-dimethylthiazol-2-yl]-2,5-diphenyltetrazolium bromide) assay with absorbance read at 540 nm. An eight-point dose response curve was produced, using MS Excel software. From these dose-response curves, the GI50 value was calculated, representing the drug concentration at which cell growth is 50% inhibited based on the difference between the optical density values on day 0 and those at the end of drug exposure ([Bradshaw et al., 2008]; [Zhang et al., 2009]). Each data point was conducted in duplicate and the mean ± S.E.M. calculated from four to five replicates (n = 4 or 5), which were performed on separate occasions and separate cell line passages. Where shown, significant test results were determined using T-test analysis at p < 0.01 and p < 0.05 with a two tail distribution.

[2] = system: MDA-MB-231 breast cancer cells; test: MTT growth inhibition assay (72 h); settings: MDA-MB-231, Breast (TN)
Excerpt: as §1, §2, §3

H460 (lung) cells = test: MTT growth inhibition assay (72 h)
Excerpt: as §1, §2, §3

T47D breast cancer cells = test: MTT growth inhibition assay (72 h); settings: Breast (ER/PR)
Excerpt: as §1, §2, §3

[3] = system: MCF-7 breast cancer cells; test: MTT growth inhibition assay (72 h)
Excerpt: as §1, §2, §3

[4] = system: SKBR3 breast cancer cells; test: MTT growth inhibition assay (72 h)
Excerpt: as §1, §2, §3

HT29 (colorectal) cells = test: MTT growth inhibition assay (72 h)
Excerpt: as §1, §2, §3

BT20 breast cancer cells = test: MTT growth inhibition assay (72 h)
Excerpt: as §1, §2, §3

Du145 (prostate) cells = test: MTT growth inhibition assay (72 h)
Excerpt: as §1, §2, §3

SJ-G2 (brain) cells = test: MTT growth inhibition assay (72 h); settings: SJ-G2, Brain (GBM)
Excerpt: as §1, §2, §3

[5] = system: ZR-75-1 breast cancer cells; test: MTT growth inhibition assay (72 h); settings: ZR-75-1, Breast (ER/PR)
Excerpt: as §1, §2, §3

A2780 (ovary) cells = test: MTT growth inhibition assay (72 h)
Excerpt: as §1, §2, §3

[6] = system: BT474 breast cancer cells; test: MTT growth inhibition assay (72 h)
Excerpt: as §1, §2, §3

BE2-C (neuronal) cells = test: MTT growth inhibition assay (72 h); settings: Neuron
Excerpt: as §1, §2, §3

A431 (vulva/skin) cells = test: MTT growth inhibition assay (72 h)
Excerpt: as §1, §2, §3

U87 (brain) cells = test: MTT growth inhibition assay (72 h); settings: U87, Brain (GBM)
Excerpt: as §1, §2, §3

MIA (pancreas) cells = test: MTT growth inhibition assay (72 h)
Excerpt: as §1, §2, §3

[7] = system: MDA-MB-468 breast cancer cells; test: MTT growth inhibition assay (72 h); settings: MDA-MB-468, Breast (TN)
Excerpt: as §1, §2, §3

[8] = system: MCF10A normal breast cells; test: MTT growth inhibition assay (72 h)
Excerpt: as §1, §2, §3

## Nc1ccccc1N1C(=O)c2cccc3cccc(c23)C1=O [Compound 2, 2-(2-aminophenyl)-1H-benzo[de]isoquinoline-1,3(2H)-dione]
[1]; A431, T47D, ZR-75-1, SKBR3, MDA-MB-468 vs MCF10A, from GI50 values of ref Gilbert et al., 2020
  increase in growth inhibition potency compared with MCF10A cells (fold, range over cell lines): 100 to 300 fold

## 9-Methyl-7H-benzo[de]benzo[4,5]imidazo[2,1-a]isoquinolin-7-one (8a) and 12-methyl-7H-benzo[de]benzo[4,5]imidazo[2,1-a]isoquinolin-7-one (8b) [Compound 8]
[2]
  GI50: 8.2 ± 3.3 µM
H460 (lung) cells; H460, Lung (ER)
  GI50: 27 ± 6.7 µM
T47D breast cancer cells
  GI50: 0.8 ± 0.11 µM
[3]; MCF-7, Breast (ER)
  GI50: 2.8 ± 0.61 µM
[4]; SKBR3, Breast (HER2)
  GI50: 0.27 ± 0.027 µM
HT29 (colorectal) cells; HT29, Colon
  GI50: 3.7 ± 0.69 µM
BT20 breast cancer cells; BT20, Breast (TN)
  GI50: 1.4 ± 0.8 µM
Du145 (prostate) cells
  GI50: 38 ± 6.9 µM
SJ-G2 (brain) cells
  GI50: 24 ± 8.4 µM
[5]
  GI50: 0.59 ± 0.38 µM
A2780 (ovary) cells
  GI50: 11 ± 0.58 µM
[6]; BT474, Breast (ER/PR/HER2)
  GI50: 4.6 ± 2.7 µM
BE2-C (neuronal) cells
  GI50: 15 ± 10 µM
A431 (vulva/skin) cells; A431, Skin (ER)
  GI50: 0.56 ± 0.14 µM
U87 (brain) cells
  GI50: 38 ± 2.5 µM
MIA (pancreas) cells
  GI50: 20 ± 10 µM
[7]
  GI50: 0.056 ± 0.024 µM
[8]
  GI50: 2 ± 1.3 µM

## 10-Methyl-7H-benzo[de]benzo[4,5]imidazo[2,1-a]isoquinolin-7-one (7a) and 11-methyl-7H-benzo[de]benzo[4,5]imidazo[2,1-a]isoquinolin-7-one (7b) [Compound 7]
[2]
  GI50: 25 ± 7.1 µM
H460 (lung) cells; H460, Lung (ER)
  GI50: 45 ± 8 µM
T47D breast cancer cells
  GI50: 3.1 ± 0.17 µM
[3]; MCF-7, Breast (ER)
  GI50: 3.6 ± 0.4 µM
[4]; SKBR3, Breast (HER2)
  GI50: 1.2 ± 0.93 µM
HT29 (colorectal) cells; HT29, Colon
  GI50: 5 ± 0.07 µM
BT20 breast cancer cells; BT20, Breast (TN)
  GI50: 5.2 ± 2 µM
Du145 (prostate) cells
  GI50: 37 ± 7.8 µM
SJ-G2 (brain) cells
  GI50: > 50 µM
[5]
  GI50: 0.19 ± 0.045 µM
A2780 (ovary) cells
  GI50: 5.2 ± 0.63 µM
[6]; BT474, Breast (ER/PR/HER2)
  GI50: > 50 µM
BE2-C (neuronal) cells
  GI50: 4.9 ± 0.09 µM
A431 (vulva/skin) cells; A431, Skin (ER)
  GI50: 4.8 ± 0.7 µM
U87 (brain) cells
  GI50: 17 ± 2.7 µM
MIA (pancreas) cells
  GI50: 8.1 ± 0.97 µM
[7]
  GI50: 0.35 ± 0.13 µM
[8]
  GI50: 4.7 ± 0.12 µM

## O=c1c2cccc3cccc(c32)c2nc3ccccc3n12 [Compound 5, 7H-Benzo[de]benzo[4,5]imidazo[2,1-a]isoquinolin-7-one]
[1]; GI50 MCF10A / GI50 MDA-MB-468
  fold greater response (selectivity) in MDA-MB-468 than in normal MCF10A breast cells: 3,200 fold
[1]; H460, A431, T47D, ZR-75-1, SKBR3, MDA-MB-468, BT20 vs MCF10A
  growth inhibition compared with normal cells (fold, range over cell lines): 5 to 3200 fold
[1]; Homo sapiens, T47D, ZR-75-1, SKBR3, MDA-MB-468 and BT20, read-out: GI50 (range over cell lines)
  GI50: 0.001 to 0.41 µM
[1]; Homo sapiens, all other cell populations (than H460, A431, T47D, ZR-75-1, SKBR3, MDA-MB-468, BT20), read-out: GI50 (range over cell lines)
  GI50: 1.5 to 7 µM
[1]; Homo sapiens, other cell lines HT29, U87, SJ-G2, A2780, DU145, BE2-C, MIA, MDA-MB-231, read-out: GI50 (range over cell lines)
  GI50: 2.1 to 7 µM
[1]; across the cell lines examined (Table 1)
  fold more potent than head group substituted analogues 3, 4, 6, 7, 8 and 9: > 10 fold
[1]; select breast cancer cell lines MCF-7, T47D, ZR-75-1, SKBR3, MDA-MB-468, BT20, BT474, read-out: GI50 values (range over cell lines)
  GI50: 0.001 to 2.1 µM
[2]; Homo sapiens
  GI50: 5.5 ± 1.8 µM
H460 (lung) cells; Homo sapiens, NCI-H460, H460, Lung (ER)
  GI50: 0.61 ± 0.13 µM
T47D breast cancer cells; Homo sapiens
  GI50: 0.2 ± 0.073 µM
[3]; Homo sapiens, MCF7, MCF-7, Breast (ER)
  GI50: 2.1 ± 0.44 µM
[4]; Homo sapiens, SK-BR-3, SKBR3, Breast (HER2)
  GI50: 0.032 ± 0.014 µM
HT29 (colorectal) cells; Homo sapiens, HT-29, HT29, Colon
  GI50: 2.1 ± 0.3 µM
BT20 breast cancer cells; Homo sapiens, BT-20, BT20, Breast (TN)
  GI50: 0.41 ± 0.39 µM
Du145 (prostate) cells; Homo sapiens, DU-145
  GI50: 4.1 ± 0.03 µM
SJ-G2 (brain) cells; Homo sapiens
  GI50: 4.6 ± 0.23 µM
[5]; Homo sapiens
  GI50: 0.026 ± 0.015 µM
A2780 (ovary) cells; Homo sapiens
  GI50: 2.2 ± 0.21 µM
[6]; Homo sapiens, BT-474, BT474, Breast (ER/PR/HER2)
  GI50: 1.5 ± 1.3 µM
BE2-C (neuronal) cells; Homo sapiens, BE(2)-C
  GI50: 5.1 ± 0.74 µM
A431 (vulva/skin) cells; Homo sapiens, A-431, A431, Skin (ER)
  GI50: 0.05 ± 0.013 µM
U87 (brain) cells; Homo sapiens
  GI50: 7 ± 0.033 µM
MIA (pancreas) cells; Homo sapiens
  GI50: 5.2 ± 0.73 µM
[8]; Homo sapiens, MCF-10A
  GI50: 3.2 ± 0.32 µM
